In patent US9750733B2, “Compounds for preventing and/or treating lysosomal storage disorders and/or degenerative disorders of the central nervous system” (Amicus Therapeutics, Inc., priority 2012, dated 2017):
Counter-ions that a name gives are not always drawn.

Columns and labels:
[1] = Dynamic vapor sorption (DVS) hygroscopicity analysis; format: physicochemical; conditions: for Hygroscopicity (% water uptake up to 45% relative humidity): DVS, 25° C., 60 minutes hold per 10% step in relative humidity, weight increase as percentage of material weight
Description: Differences in hygroscopicity (moisture uptake) of the various forms of a solid material provide a measure of their relative stability at increasing relative humidity. Dynamic vapor sorption (DVS) analysis was performed for (3R,4R,5S)-5-(difluoromethyl)piperidine-3,4-diol, (3R,4R,5S)-5-(difluoromethyl)piperidine-3,4-diol fumarate Form A, (3R,4R,5S)-5-(difluoromethyl)piperidine-3,4-diol fumarate Form 1B and (3R,4R,5S)-5-(difluoromethyl)piperidine-3,4-diol tosylate. Moisture sorption isotherms for samples of each salt and the free base were obtained using a DVS-1 system from Surface Measurement Systems (London, UK). The relative humidity was cycled from 45% to 95% (sorption), back to 0% (desorption) and back to 45% (sorption) at a constant temperature of 25° C. with a hold time of 60 minutes per each 10% step in relative humidity. The increase in weight due to moisture uptake was measured as a percentage of the weight of the material.

β-glucocerebrosidase = target: T1, β-glucocerebrosidase (Homo sapiens, UniProt P04062); conditions: as described in US 2011/0091442 and 2011/0092541; cited from earlier work
T1 sequence (P04062 40-536): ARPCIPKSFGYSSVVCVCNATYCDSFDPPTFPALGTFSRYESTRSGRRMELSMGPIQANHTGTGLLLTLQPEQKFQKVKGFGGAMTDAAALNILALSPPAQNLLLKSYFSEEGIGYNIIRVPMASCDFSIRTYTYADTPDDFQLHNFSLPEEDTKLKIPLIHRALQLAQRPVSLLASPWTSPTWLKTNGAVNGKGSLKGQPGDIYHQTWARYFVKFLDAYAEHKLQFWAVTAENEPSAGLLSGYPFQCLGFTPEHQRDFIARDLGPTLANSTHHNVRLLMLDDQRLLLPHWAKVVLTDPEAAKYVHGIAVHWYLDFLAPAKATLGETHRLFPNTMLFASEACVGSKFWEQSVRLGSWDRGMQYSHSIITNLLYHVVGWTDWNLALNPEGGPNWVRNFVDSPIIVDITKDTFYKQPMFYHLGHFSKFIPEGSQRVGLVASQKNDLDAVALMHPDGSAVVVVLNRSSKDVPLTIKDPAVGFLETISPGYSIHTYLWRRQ

[2] = Physical stability under stress and ambient conditions; format: physicochemical
Excerpt: (§1) The hydrochloride and fumarate Forms B, B2 and B3 salts of (3R,4R,5S)-5-(difluoromethyl)piperidine-3,4-diol were also found to be hygroscopic.

[3] = Separate dynamic vapor sorption test (hydrochloride salt); format: physicochemical
Excerpt: as §1

## O[C@H]1[C@H](O)CNC[C@@H]1C(F)F [Free Base, (3R,4R,5S)-5-(difluoromethyl)piperidine-3,4-diol]
[1]
  Hygroscopicity (% water uptake up to 45% relative humidity): 9.3%
β-glucocerebrosidase
  Inhibition of β-glucocerebrosidase (in words): potent and selective inhibitors

## O=C(O)/C=C/C(=O)O.O[C@H]1[C@H](O)CNC[C@@H]1C(F)F [Fumarate Form 1B, (3R,4R,5S)-5-(difluoromethyl) piperidine-3,4-diol fumarate Form 1B]
[1]
  Hygroscopicity (% water uptake up to 45% relative humidity): 0.497%
[1]; comparison of the Table 6 DVS values
  Hygroscopicity of the salt relative to the free base (fold lower than free base): roughly 20 fold

## O[C@H]1[C@H](O)CNC[C@@H]1C(F)F [Fumarate Form A, (3R,4R,5S)-5-(difluoromethyl)piperidine-3,4-diol fumarate Form A]
[1]
  Hygroscopicity (% water uptake up to 45% relative humidity): 0.09%
[2]
  Physical state after one day at 40° C. and 75% relative humidity: physically stable
[2]; slurries at 10° C. and 30° C. in a variety of organic solvents
  Physical stability in slurries: physically stable
[2]; wet grinding for 60 minutes at 30 Hz
  Physical stability on wet grinding: physically stable

## Cc1ccc(S(=O)(=O)O)cc1.O[C@H]1[C@H](O)CNC[C@@H]1C(F)F [Tosylate, (3R,4R,5S)-5-(difluoromethyl)piperidine-3,4-diol tosylate]
[1]
  Hygroscopicity (% water uptake up to 45% relative humidity): 0.08%

## O=C(O)/C=C/C(=O)O.O[C@H]1[C@H](O)CNC[C@@H]1C(F)F [fumarate Form B3, (3R,4R,5S)-5-(difluoromethyl) piperidine-3,4-diol fumarate Form B3]
[2]; at least one day at ambient conditions (room temperature)
  Stability at ambient conditions: remained stable

## O=C(O)/C=C/C(=O)O.O[C@H]1[C@H](O)CNC[C@@H]1C(F)F [fumarate Form B, (3R,4R,5S)-5-(difluoromethyl) piperidine-3,4-diol fumarate Forms B, B2 and B3]
[2]
  Hygroscopicity (in words): hygroscopic
  Physical state after one day at 40° C. and 75% relative humidity: became deliquescent

## Cl.O[C@H]1[C@H](O)CNC[C@@H]1C(F)F [hydrochloride, (3R,4R,5S)-5-(difluoromethyl)piperidine-3,4-diol hydrochloride]
[3]
  Relative humidity after which the salt became deliquescent: > 60 % relative humidity
[2]
  Hygroscopicity (in words): hygroscopic
β-glucocerebrosidase
  Inhibition of β-glucocerebrosidase (in words): potent and selective inhibitors
